Experimental findings from ChEMBL document CHEMBL3259583, “Synthesis and biological evaluation of (+)-neopeltolide analogues: importance of the oxazole-containing side chain” (Bioorg Med Chem Lett, 2014) are described below.

Assay [1] can be described thus: Antiproliferative activity against human PANC1 cells after 96 hrs by WST-8 assay. Type of assay: functional, cell-based. To be noted: PANC-1, 96 h.
The test system of assay [2] is A549. As to the kind of experiment: Antiproliferative activity against human A549 cells after 120 hrs by WST-8 assay. The assay is classed as functional, cell-based. To be noted: A549, 120 h.
In assay [3] the test system is A549. As to the kind of experiment: Ratio of (+)-Neopeltolide IC50 to compound IC50 for human A549 cells after 120 hrs by WST-8 assay. The assay is classed as functional.

In the case of `C/C=C\c1nc(CC/C=C\C(=O)O[C@H]2C[C@@H]3CC(=O)O[C@@H](CCC)C[C@@H](OC)C/C(C)=C\[C@H](C2)O3)co1`, the IC50 in assay [1] turned out to be 440 nM; in the assay with A549 [2] it was 740 nM.
For `CCC[C@H]1C[C@@H](OC)C/C(C)=C\[C@@H]2C[C@@H](OC(=O)/C=C\CCc3coc(/C=C\CNC(=O)OC)n3)C[C@H](CC(=O)O1)O2`, the results for the IC50 (in assay [1]; in the assay on A549 [2]) were 2.4 nM and 0.5 nM, respectively. For the same compound, the “Ratio IC50” value with A549 [3] was 3.
On to `CCC[C@H]1C[C@@H](OC)C/C(C)=C\[C@@H]2C[C@@H](OC(=O)CCCCc3coc(/C=C\CNC(=O)OC)n3)C[C@H](CC(=O)O1)O2`, for which the half-maximal inhibitory concentration (IC50) in assay [1] turned out to be 26 nM; with A549 [2], 110 nM.
Regarding `CCC[C@H]1C[C@@H](OC)C/C(C)=C\[C@@H]2C[C@@H](OC(=O)/C=C\CCc3coc(CCCNC(=O)OC)n3)C[C@H](CC(=O)O1)O2`, the results for the IC50 (in assay [1]; with A549 [2]) were 200 nM and 400 nM, respectively.
For `CCC[C@H]1C[C@@H](OC)C/C(C)=C\[C@@H]2C[C@@H](OC(=O)CCCCc3coc(CCCNC(=O)OC)n3)C[C@H](CC(=O)O1)O2` the same measures were 3200 nM and over 10000 nM.
Taken in the same sequence, the figures for `CCC[C@H]1C[C@@H](OC)C/C(C)=C\[C@@H]2C[C@@H](OC(=O)/C(C)=C\CCc3coc(/C=C\CNC(=O)OC)n3)C[C@H](CC(=O)O1)O2` were 2.6 nM and 2.5 nM.
Regarding `CCC[C@H]1C[C@@H](OC)C/C(C)=C\[C@@H]2C[C@@H](OC(=O)/C=C(/C)CCc3coc(/C=C\CNC(=O)OC)n3)C[C@H](CC(=O)O1)O2`, the IC50 stood at 6.4 nM in assay [1] and 6.3 nM in the assay with A549 [2].
As to `CCC[C@H]1C[C@@H](OC)C/C(C)=C\[C@@H]2C[C@@H](OC(=O)c3ccccc3CCc3coc(/C=C\CNC(=O)OC)n3)C[C@H](CC(=O)O1)O2`, the IC50 is 75 nM in assay [1] and 500 nM in the assay on A549 [2].
Turning to `CCC[C@H]1C[C@@H](OC)C/C(C)=C\[C@@H]2C[C@@H](OC(=O)/C=C\CCc3coc(C=C(C)C)n3)C[C@H](CC(=O)O1)O2`, the values for the IC50 (in assay [1]; in the assay on A549 [2]) were 2800 nM and 3900 nM, respectively.
